Results: publication PMC13576449, “Small-Molecule Activators of PRMT1: Discovery, SAR Analyses, and Proapoptotic Effects in Pancreatic Cancer Cells” (Journal of Medicinal Chemistry, 2026)

Columns and labels:
Format in all cases: biochemical
FLAG-tagged PRMT6 = target: T1, FLAG-tagged PRMT6 (Homo sapiens, UniProt Q96LA8); experiment: Fluorescence-based in vitro PRMT assay (F-PRMT assay), PRMT6; conditions: Table 1, 100 μM compound, n = 3; for Experimental result (PRMT6): 2 μM PRMT, vs solvent control = 100%, racemates used; for Efficacy ±Δ% (PRMT6): mean % difference of activity vs solvent control (100%), - inhibition, + activation
T1 construct: The complete ORFs of human PRMT3 and PRMT6 were inserted; made in house; host or cells: Sf9 insect cells (baculovirus)
Method in brief: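 Baculovirus/Sf9-expressed FLAG-PRMTs (human PRMT3, PRMT6; mouse PRMT4), anti-FLAG purified and used bead-bound, methylated Bz-Arg-AMC with SAM for 2 h at 37 °C, 1,000 rpm. Technical triplicates; no-SAM negative controls.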

FLAG-tagged PRMT3 = target: T2, FLAG-tagged PRMT3 (Homo sapiens, UniProt O60678); experiment: Fluorescence-based in vitro PRMT assay (F-PRMT assay), PRMT3; conditions: Table 1; 100 μM compound, 2 μM PRMT, vs solvent control = 100%, n = 3; racemates used
T2 construct: The complete ORFs of human PRMT3 and PRMT6 were inserted; made in house; host or cells: Sf9 insect cells (baculovirus)
From the text: (§1) To evaluate the effects of the selected candidate molecules on the catalytic activity of type I enzymes, we employed a quantitative fluorescence-based in vitro PRMT activity (F-PRMT) assay using recombinant FLAG-tagged PRMT proteins expressed and affinity-purified from baculovirus-infected Sf9 cells (SI Figure S1, SI Figure S2A).
(§2) Human cell lines (PaTu8988T, PANC-1) were obtained from ATCC (American Type Culture Collection) and cultured in DMEM supplemented with 10% fetal calf serum (FCS, Gibco/BRL), 1% penicillin/streptomycin at 37 °C and 5% CO2. […] For PRMT1 inhibition, cells were treated with type I PRMT inhibitor MS023 hydrochloride (Biomol). For induction of genotoxic stress, cells were treated with gemcitabine (LC Laboratories). […] The following plasmids were used: pFASTBAC-FLAG-rat PRMT1, pFASTBAC-FLAG-mouse PRMT4, and pGEX-GAR. The complete ORFs of human PRMT3 and PRMT6 were inserted into the pFASTBAC HT-3xFLAG B vector via BamHI/HindIII and BamHI/XhoI sites, respectively.
(§3) For PRMT protein expression in insect cells, recombinant baculovirus (bacmid) was generated using the Bac-to-Bac baculovirus system (Invitrogen). Sf9 cells were transfected with bacmid DNA using X-tremeGENE HP DNA transfection reagent (Sigma-Aldrich) according to the manufacturer's instructions. After 3–5 days, supernatants were collected, filtered, and used to infect Sf9 cells to amplify the virus. After 2 rounds of virus amplification and estimation of the final P3 virus titer, the P3 virus (2–5 μL/10^6 cells) was applied for large-scale infection of 200 × 10^6 Sf9 cells in suspension culture at a density of 1 × 10^6 cells/mL. Cells were harvested 5–6 days post-infection by centrifugation at 500 g for 5 min at room temperature. Protein purification from baculovirus-infected Sf9 cells was performed as previously described. , Cells were lysed in BC buffer (20 mM HEPES pH 7.9, 250 mM NaCl, 10% (v/v) glycerin, 0.4 mM EDTA, 1 mM DTT) containing a protease inhibitor cocktail (Roche) by 3 freeze-thaw cycles. After centrifugation at 11,000 rpm (Sorval SS34 rotor) and 4 °C for 1 h, the supernatant (whole cell protein extract) was incubated with anti-FLAG M2 Affinity Gel (Cytiva) at 4 °C and under agitation for 4 h. Subsequently, beads were washed in BC buffer containing various NaCl concentrations (once in BC with 1 M NaCl, twice in BC with 500 mM NaCl, twice in BC with 250 mM NaCl and twice in BC with 100 mM NaCl). FLAG-tagged proteins were either maintained bead-bound as a 50% (v/v) slurry in BC buffer with 100 mM NaCl and stored at −80 °C or were eluted in the appropriate elution buffer (depending on the subsequent assay) containing 0.25 mg/mL 3xFLAG peptides (Sigma-Aldrich) at 4 °C for 30–45 min. To remove the FLAG-peptides from the eluate, dialysis was performed in elution buffer containing 10% (v/v) glycerol at 4 °C for 4–6 h using Slide-A-Lyzer Dialysis Devices (Thermo Fisher Scientific) according to the manufacturer’s recommendations.
(§4) In the first step, the fluorogenic substrate Nα-Benzoyl-L-arginine-7-amido-4-methylcoumarin (Bz-Arg-AMC, Sigma-Aldrich) undergoes methylation by PRMTs upon the addition of the cofactor SAM. In the second reaction step, trypsin cleaves the nonmethylated substrate, leading to the generation of the 7-amino-4-methylcoumarin product, which can be quantified by subsequent fluorescence measurement (excitation: 355 nm, emission: 460 nm). The first reaction was conducted with bead-bound PRMTs at a total volume of 100 μL. Each condition was performed as a technical triplicate to determine the mean and the standard deviation. […] For the negative controls, SAM was substituted with assay buffer. The incubation was continued at 37 °C and under agitation (1,000 rpm) for a duration of 2 h.

FLAG-tagged PRMT1 = target: T3, FLAG-tagged PRMT1 (Rattus norvegicus, UniProt Q63009); experiment: Fluorescence-based in vitro PRMT assay (F-PRMT assay), PRMT1; conditions: Table 1, 100 μM compound, n = 3; for Experimental result (PRMT1): 2 μM PRMT, vs solvent control = 100%, racemates used; for Efficacy ±Δ% (PRMT1): mean % difference of activity vs solvent control (100%), - inhibition, + activation
T3 construct: Full-length FLAG-tagged PRMT protein; made in house; host or cells: Sf9 insect cells (baculovirus)

FLAG-tagged PRMT4 = target: T4, FLAG-tagged PRMT4 (Mus musculus, UniProt Q9WVG6); experiment: Fluorescence-based in vitro PRMT assay (F-PRMT assay), PRMT4; conditions: Table 1, 100 μM compound, n = 3; for Experimental result (PRMT4): 2 μM PRMT, vs solvent control = 100%, racemates used; for Efficacy ±Δ% (PRMT4): mean % difference of activity vs solvent control (100%), - inhibition, + activation
T4 construct: Full-length FLAG-tagged PRMT protein; made in house; host or cells: Sf9 insect cells (baculovirus)
T4 sequence (Q9WVG6 1-608): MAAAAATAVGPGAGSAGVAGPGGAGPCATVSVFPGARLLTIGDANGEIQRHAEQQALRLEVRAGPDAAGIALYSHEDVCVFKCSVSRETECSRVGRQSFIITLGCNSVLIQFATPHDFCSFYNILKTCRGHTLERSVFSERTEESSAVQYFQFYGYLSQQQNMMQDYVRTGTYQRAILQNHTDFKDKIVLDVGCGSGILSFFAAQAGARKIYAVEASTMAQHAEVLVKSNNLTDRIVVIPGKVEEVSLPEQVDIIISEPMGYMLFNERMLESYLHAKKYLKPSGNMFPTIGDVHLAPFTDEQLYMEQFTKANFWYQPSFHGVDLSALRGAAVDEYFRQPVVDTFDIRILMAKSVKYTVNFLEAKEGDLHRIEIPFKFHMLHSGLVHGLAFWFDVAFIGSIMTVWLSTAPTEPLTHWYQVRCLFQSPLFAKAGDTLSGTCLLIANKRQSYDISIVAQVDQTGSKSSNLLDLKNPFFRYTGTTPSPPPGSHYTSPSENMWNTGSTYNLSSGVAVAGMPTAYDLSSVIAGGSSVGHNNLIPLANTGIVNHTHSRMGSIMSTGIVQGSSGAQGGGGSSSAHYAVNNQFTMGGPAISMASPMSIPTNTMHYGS
From the text: as §1, §2, §3, §4

T3 sequence (Q63009 whole entry): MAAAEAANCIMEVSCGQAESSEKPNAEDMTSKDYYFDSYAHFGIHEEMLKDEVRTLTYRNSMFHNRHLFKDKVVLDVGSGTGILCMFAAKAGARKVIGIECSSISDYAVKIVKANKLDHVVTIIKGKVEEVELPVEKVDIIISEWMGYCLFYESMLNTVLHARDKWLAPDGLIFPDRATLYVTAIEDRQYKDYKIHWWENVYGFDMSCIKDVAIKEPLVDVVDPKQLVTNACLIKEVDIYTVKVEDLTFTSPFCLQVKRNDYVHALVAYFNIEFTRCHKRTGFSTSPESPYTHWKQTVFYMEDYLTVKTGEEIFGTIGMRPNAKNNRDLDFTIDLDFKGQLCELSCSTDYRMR
T1 sequence (Q96LA8 whole entry): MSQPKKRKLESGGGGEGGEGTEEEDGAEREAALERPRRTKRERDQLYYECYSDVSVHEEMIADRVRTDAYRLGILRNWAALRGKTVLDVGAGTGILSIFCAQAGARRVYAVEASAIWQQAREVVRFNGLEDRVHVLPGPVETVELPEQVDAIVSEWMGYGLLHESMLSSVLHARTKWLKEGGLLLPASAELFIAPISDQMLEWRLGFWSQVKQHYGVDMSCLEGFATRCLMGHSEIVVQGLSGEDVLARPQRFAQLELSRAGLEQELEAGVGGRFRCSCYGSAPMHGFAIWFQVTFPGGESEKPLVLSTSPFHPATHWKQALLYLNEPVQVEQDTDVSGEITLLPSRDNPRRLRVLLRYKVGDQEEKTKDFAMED
T2 sequence (O60678 whole entry): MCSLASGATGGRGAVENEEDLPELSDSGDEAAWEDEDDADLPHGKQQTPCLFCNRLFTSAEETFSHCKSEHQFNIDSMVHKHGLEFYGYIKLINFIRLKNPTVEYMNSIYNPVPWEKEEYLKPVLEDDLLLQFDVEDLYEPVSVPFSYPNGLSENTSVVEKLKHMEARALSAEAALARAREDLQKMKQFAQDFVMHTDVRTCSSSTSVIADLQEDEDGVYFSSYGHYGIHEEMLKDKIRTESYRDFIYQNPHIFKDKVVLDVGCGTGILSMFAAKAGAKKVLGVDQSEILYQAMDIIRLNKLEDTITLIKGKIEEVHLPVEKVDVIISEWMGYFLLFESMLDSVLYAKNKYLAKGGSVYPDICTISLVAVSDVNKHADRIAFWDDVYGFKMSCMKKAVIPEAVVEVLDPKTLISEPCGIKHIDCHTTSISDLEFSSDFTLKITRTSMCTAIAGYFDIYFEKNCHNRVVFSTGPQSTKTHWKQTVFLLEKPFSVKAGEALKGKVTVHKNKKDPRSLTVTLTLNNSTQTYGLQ

Compound | Experimental result (PRMT6) (FLAG-tagged PRMT6) | Experimental result (PRMT3) (FLAG-tagged PRMT3) | Experimental result (PRMT1) (FLAG-tagged PRMT1) | Experimental result (PRMT4) (FLAG-tagged PRMT4) | Efficacy ±Δ% (PRMT6) (FLAG-tagged PRMT6) [%] | Efficacy ±Δ% (PRMT4) (FLAG-tagged PRMT4) [%] | Efficacy ±Δ% (PRMT1) (FLAG-tagged PRMT1) [%]
CNCc1cn(CC2CCN(c3ccc(C(C)=O)cn3)CC2)nn1 [Compound K002JS003] | PRMT6 i | PRMT3 n.e. (Compounds, which did not significantly affect the catalytic activity (less than ±6% change or not significant p-value), are marked with [drawing 8] (no effect)) | PRMT1 n.e. (Compounds, which did not significantly affect the catalytic activity (less than ±6% change or not significant p-value), are marked with [drawing 8] (no effect)) | PRMT4 n.e. (Compounds, which did not significantly affect the catalytic activity (less than ±6% change or not significant p-value), are marked with [drawing 8] (no effect)) |  |  | 
NCC(=O)Nc1ccc(NC(=O)c2ccco2)cc1 [Compound K002JS013] | PRMT6 i | PRMT3 n.e. (Compounds, which did not significantly affect the catalytic activity (less than ±6% change or not significant p-value), are marked with [drawing 8] (no effect)) | PRMT1 n.e. (Compounds, which did not significantly affect the catalytic activity (less than ±6% change or not significant p-value), are marked with [drawing 8] (no effect)) | PRMT4 i | -8 | -50 | 
CNCCCNCCc1ccccc1 [Compound K001JS006] | PRMT6 i | PRMT3 n.e. (Compounds, which did not significantly affect the catalytic activity (less than ±6% change or not significant p-value), are marked with [drawing 8] (no effect)) | PRMT1 n.e. (Compounds, which did not significantly affect the catalytic activity (less than ±6% change or not significant p-value), are marked with [drawing 8] (no effect)) | PRMT4 i |  | -10 | 
O=C(CC1COCCN1)N1CCC(N2CCc3ccccc3C2)CC1 (stereo not shown) [Compound K002JS014] | PRMT6 i | PRMT3 n.e. (Compounds, which did not significantly affect the catalytic activity (less than ±6% change or not significant p-value), are marked with [drawing 8] (no effect)) | PRMT1 n.e. (Compounds, which did not significantly affect the catalytic activity (less than ±6% change or not significant p-value), are marked with [drawing 8] (no effect)) | PRMT4 n.e. (Compounds, which did not significantly affect the catalytic activity (less than ±6% change or not significant p-value), are marked with [drawing 8] (no effect)) | -8 |  | 
CNC[C@H](O)COc1ccc([N+](=O)[O-])cc1Cl (racemic) [Compound K001JS007] | PRMT6 i | PRMT3 n.e. (Compounds, which did not significantly affect the catalytic activity (less than ±6% change or not significant p-value), are marked with [drawing 8] (no effect)) | PRMT1 i | PRMT4 i |  |  | -30
N=C(N)NCCSCc1cccc2ccccc12 [Compound K001JS010] | PRMT6 i | PRMT3 n.e. (Compounds, which did not significantly affect the catalytic activity (less than ±6% change or not significant p-value), are marked with [drawing 8] (no effect)) | PRMT1 i | PRMT4 n.e. (Compounds, which did not significantly affect the catalytic activity (less than ±6% change or not significant p-value), are marked with [drawing 8] (no effect)) |  |  | -20
CNC[C@@H](O)COc1cccc(OC)c1 (racemic) [Compound K001JS003] | PRMT6 n.e. (Compounds, which did not significantly affect the catalytic activity (less than ±6% change or not significant p-value), are marked with [drawing 8] (no effect)) | PRMT3 n.e. (Compounds, which did not significantly affect the catalytic activity (less than ±6% change or not significant p-value), are marked with [drawing 8] (no effect)) | PRMT1 n.e. (Compounds, which did not significantly affect the catalytic activity (less than ±6% change or not significant p-value), are marked with [drawing 8] (no effect)) | PRMT4 i |  |  | 
